In US11479570B2, “Pentafluorophosphate derivative, its uses and an appropriate manufacturing method” (FREIE UNIVERSITÄT BERLIN, priority 2017, dated 2022):
Entries after “also recorded” stand apart in the source; their conditions may differ. Where two headings read alike, the source gives them in different places.

Experiments:
[1] = biological target: T1, protein tyrosine phosphatase PTP1B (Homo sapiens, UniProt P18031); settings: data published (literature), cited from earlier work
T1 sequence (P18031 1-435): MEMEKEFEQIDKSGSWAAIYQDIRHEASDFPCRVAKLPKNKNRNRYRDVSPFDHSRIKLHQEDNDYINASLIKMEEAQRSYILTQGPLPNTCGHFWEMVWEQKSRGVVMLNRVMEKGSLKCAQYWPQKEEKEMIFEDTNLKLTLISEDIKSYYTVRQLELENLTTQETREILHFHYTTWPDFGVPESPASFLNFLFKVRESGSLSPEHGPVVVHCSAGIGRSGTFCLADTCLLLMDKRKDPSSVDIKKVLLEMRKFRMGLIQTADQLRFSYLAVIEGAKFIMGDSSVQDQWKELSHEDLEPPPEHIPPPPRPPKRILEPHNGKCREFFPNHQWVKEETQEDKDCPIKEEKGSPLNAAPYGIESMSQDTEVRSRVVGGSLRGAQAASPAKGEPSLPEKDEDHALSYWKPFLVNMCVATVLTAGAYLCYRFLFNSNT

[2] = biological target: T1, protein tyrosine phosphatase PTP1B; experiment: PTP1B enzyme assay (detection of chromogenic para-nitrophenolate); assay type: biochemical; settings: for Ki: detection of the chromogenic para-nitrophenolate at 405 nm, read-out: inhibition constant KI (inhibitory effect on PTP1B in an enzyme assay)
Source text: (§1) In order to enhance the solubility in aqueous systems and to exclude any interfering effects of the counter ion NMe4^+, compound 13 was transferred into its sodium salt 13-Na.
During the measurements of the inhibitory effect of 13-Na, inhibitors with known inhibition constants were used in parallel as positive controls in order to verify the reliability of the assay.

[3] = Stability in aqueous solution by 19F-NMR spectroscopy; assay type: physicochemical; settings: pH range from 2 to 12 in aqueous solution, D2O, after several hours
Source text: as §1

Solubility = assay type: physicochemical; settings: tetramethylammonium salt
Source text: The obtained product 14-Na (cf. FIG. 5B) was stable and well soluble in the used biochemical buffer.

[4] = Lipophilicity from elution properties on RP-HPLC; assay type: physicochemical; settings: in accordance with elution properties on RP-HPLC
Protocol: Formation of α,α-difluorobenzyl-penta-P-fluorophosphate 13 was confirmed by HPLC-MS analysis displaying very uncommon elution properties both on C8 and C18 reversed phase silica. While the phosphonic acid 12 eluted at 3.4 min on RP-18 material displaying a symmetric peak and a characteristic UV spectrum, compound 13 interacted strongly with the column material, resulting in elution after 9 min at the very end of the default gradient (5 to 95% ACN in water). Additionally, no absorbance of 13 at 210 nm, 254 nm and 290 nm could be observed. These properties hampered chromatographic purifications like reverse phase MPLC.

Compound: O=P(O)(O)Cc1ccccc1 [Benzyl phosphonic acid]
- Inhibitory effect on PTP1B in an enzyme assay (in words) ([1]; comparative example): No inhibition

Compound: C[N+](C)(C)C.FC(F)(c1ccccc1)[P-](F)(F)(F)(F)F [compound 13, tetramethylammonium (difluoro-(phenyl)-methyl)-penta-P-fluorophosphate]
- inhibitory potential towards PTP1B (in words) [2]: reversible inhibitor; also recorded: significant affinity
- Ki [2]: 1.8 mM
- stability (degradation or hydrolysis) [3]: no degradation or hydrolysis could be observed
- solubility in acetonitrile versus water (Solubility): more soluble in acetonitrile than in water
- lipophilicity compared to phosphonate 12 [4]: significantly more lipophilic

Compound: C[N+](C)(C)C.FC(F)(c1ccc2ccccc2c1)[P-](F)(F)(F)(F)F [compound 14, tetramethylammonium (difluoro-(naphtha-2-yl)-methyl)-penta-P-fluorophosphate]
- Ki [2]: 0.026 mM

Compound: Fluorobenzyl phosphonic acid
- Ki ([1]; comparative examples, read-out: Inhibitory effect on PTP1B in an enzyme assay, KI): ~5 mM
